# Test results from PubChem BioAssay (NCI).
#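 These data come from cells grown in 96-well plates and exposed to compound for 48 hours at five concentrations. TGI is the concentration that stops growth completely.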
# Columns and labels:
# Assay in all cases: NCI anticancer screen, dose series, 48 h
# PC-3 prostate = system: PC-3 prostate
# SW-620 colon = system: SW-620 colon
# HCT-116 colon = system: HCT-116 colon
# COLO 205 colon = system: COLO 205 colon
# EKVX NSCLC = system: EKVX NSCLC
# M14 melanoma = system: M14 melanoma
# LOX IMVI melanoma = system: LOX IMVI melanoma
# SN12C renal = system: SN12C renal
# HOP-92 NSCLC = system: HOP-92 NSCLC
# IGROV1 ovarian = system: IGROV1 ovarian
# OVCAR-8 ovarian = system: OVCAR-8 ovarian
# NCI-H522 lung = system: NCI-H522 lung
# MDA-N = system: MDA-N
SMILES,TGI (PC-3 prostate),TGI (SW-620 colon),TGI (HCT-116 colon),TGI (COLO 205 colon),TGI (EKVX NSCLC),TGI (M14 melanoma),TGI (LOX IMVI melanoma),TGI (SN12C renal),TGI (HOP-92 NSCLC),TGI (IGROV1 ovarian),TGI (OVCAR-8 ovarian),TGI (NCI-H522 lung),TGI (MDA-N)
CC(=O)O[C@@]12CO[C@@H]1CC(O)[C@@]1(C)C(=O)[C@H](O)C3=C(C)C(O)C[C@@](O)(C(OC(=O)c4ccccc4)C12)C3(C)C (stereo not given in full),> 100 µM,> 100 µM,19.2 µM,6.72 µM,> 100 µM,> 48.5 µM,> 100 µM,> 100 µM,> 100 µM,> 100 µM,> 74.9 µM,,
COc1ccc(CNc2nc(NC3CCCCC3)nc(NC3CCCCC3)n2)cc1,> 100 µM,50 µM,16 µM,20.9 µM,> 100 µM,> 100 µM,4.44 µM,> 100 µM,> 100 µM,61.6 µM,> 100 µM,28.8 µM,
Cc1ccc(NC(=O)C(=O)C2C(=O)NC(=O)NC2=O)cc1C,,> 100 µM,> 100 µM,> 100 µM,> 100 µM,> 100 µM,> 100 µM,> 100 µM,> 100 µM,> 100 µM,> 100 µM,> 100 µM,
S=C1NCCN1C(=S)Nc1ccccc1,,> 100 µM,> 100 µM,> 100 µM,> 100 µM,> 100 µM,> 100 µM,> 100 µM,> 100 µM,> 100 µM,> 100 µM,> 100 µM,> 100 µM
C[n+]1c2ccccc2c(NC(CCCN=C(N)N)C(=O)O)c2ccccc21 (stereo not given),,> 100 µM,> 100 µM,> 100 µM,> 100 µM,> 100 µM,,> 100 µM,> 100 µM,> 100 µM,> 100 µM,> 100 µM,
CCOC(=O)c1ccc(-c2ccc(Cl)cc2)[nH]1,,,> 10 µM,,> 10 µM,> 10 µM,,> 10 µM,> 10 µM,> 10 µM,> 10 µM,> 10 µM,> 10 µM
CC1CC(Nc2ccc(Br)cc2)N(C(=O)c2ccc(Br)cc2)O1 (stereo not given),> 10 µM,> 10 µM,> 10 µM,> 10 µM,> 10 µM,> 10 µM,,> 10 µM,,> 10 µM,> 10 µM,> 10 µM,> 10 µM
Cc1cc(C)nc(NC(P(=O)(O)O)P(=O)(O)O)n1,> 100 µM,,> 100 µM,> 100 µM,> 100 µM,> 100 µM,> 100 µM,,,> 100 µM,> 100 µM,> 100 µM,> 100 µM
COc1ccc(/C=N/N=C(\N)NO)c(OC)c1C,,> 100 µM,> 100 µM,30.7 µM,41.9 µM,,> 100 µM,> 100 µM,72.5 µM,> 100 µM,> 100 µM,26.4 µM,
CCCC(=O)[O-].CCCC(=O)[O-].NCCN.NCCN.[Co+3].[O-][Cl+3]([O-])([O-])[O-],,> 100 µM,> 100 µM,> 100 µM,> 100 µM,> 100 µM,> 100 µM,> 100 µM,> 100 µM,> 100 µM,> 100 µM,> 100 µM,
COc1ccc2nc3cc(Cl)ccc3c(Sc3ccc(NC(C)=O)cc3)c2c1,,> 22.3 µM,> 45.3 µM,> 34.2 µM,> 23.8 µM,> 38.5 µM,11.4 µM,> 25.6 µM,> 27 µM,> 56 µM,> 21.1 µM,7.85 µM,
COc1cc(Nc2nc3cc(C(F)(F)F)ccc3nc2C(=O)O)cc(OC)c1OC,,> 100 µM,> 100 µM,> 100 µM,> 100 µM,> 100 µM,> 100 µM,> 100 µM,85 µM,> 100 µM,> 100 µM,> 100 µM,> 100 µM
Nc1c(S(=O)(=O)c2ccccc2)c2nc3ccccc3nc2n2c1nc1ccccc12,,> 100 µM,> 100 µM,> 100 µM,> 100 µM,> 31.6 µM,> 100 µM,> 87.2 µM,> 100 µM,98.9 µM,> 63.4 µM,> 100 µM,
Cc1[nH]n(-c2nc(O)c(-c3ccccc3)c(=O)[nH]2)c(=O)c1CCO,> 100 µM,> 100 µM,> 100 µM,> 100 µM,> 100 µM,> 100 µM,,> 100 µM,> 100 µM,> 100 µM,> 100 µM,> 100 µM,> 100 µM
C=C1CC[C@H]2C(=O)OC(c3ccoc3)C[C@]2(C)C/C=C\C=C/1C(=O)OC (stereo not given in full),> 25 µM,> 25 µM,> 25 µM,> 25 µM,> 25 µM,> 25 µM,> 25 µM,> 25 µM,> 25 µM,> 25 µM,> 25 µM,,> 25 µM
CC(NC(=O)Cc1ccccc1)NC(=O)C(C)C(=O)NCc1ccccc1 (stereo not given),> 100 µM,> 100 µM,> 100 µM,> 100 µM,> 100 µM,> 100 µM,,> 100 µM,88.8 µM,> 100 µM,> 100 µM,> 100 µM,> 100 µM
O=C1OCC2OC(=O)c3cc(O)c(O)c(O)c3-c3c(O)c(O)c(O)c4c3C(=O)OC(C2OC(=O)c2cc(O)c(O)c(O)c2-c2c1cc(O)c(O)c2O)C1OC(=O)C2C4=C(O)C(=O)C23Oc2cc(O)c4c(c2[C@H]13)O[C@H](c1ccc(O)c(O)c1)[C@@H](O)C4 (stereo not given in full),> 100 µM,53.5 µM,40.3 µM,54.9 µM,42.7 µM,29.6 µM,38.3 µM,42 µM,> 100 µM,> 100 µM,58.5 µM,50.4 µM,
CC(=O)OCC1OC(n2c(C)c(N=Nc3ccc(Cl)cc3)c(C)c(C#N)c2=S)C(OC(C)=O)C(OC(C)=O)C1OC(C)=O (stereo not given),> 100 µM,> 100 µM,> 100 µM,> 100 µM,,> 100 µM,> 100 µM,> 100 µM,20.2 µM,> 100 µM,,,> 100 µM
CC(NC(=O)c1c(O)[nH]c(=S)[nH]c1=O)c1ccc([N+](=O)[O-])cc1 (stereo not given),> 100 µM,> 100 µM,> 100 µM,> 100 µM,> 100 µM,> 100 µM,> 100 µM,> 100 µM,> 100 µM,> 100 µM,,,> 100 µM
